Assay results taken from patent publication US20250163057A1, “DCN-1 MODULATING COMPOUNDS AND METHODS OF USE THEREOF” (Cellarity, Inc., priority 2023, published 2025).
Read-outs that look alike come from different tables or passages of the source.

Assays:
DCN1 protein = DCN1 protein (Homo sapiens (Human), UniProt Q96GG9); assay: Intact Protein MS Analysis with the RapidFire-TOF System (covalent adduct formation); assay type: binding; settings: MS Emax; 400 nM DCN1, 3 hours at room temperature
Method: An MS assay was performed to evaluate the ability of the compounds to covalently modify DCN-1.
DCN1 protein, His-TEV-DCN1, were expressed in E. Coli. The His-tagged protein was first purified with an Ni-NTA column. The His-tag was cleaved using His-tag TEV protease and the His-tags were removed using a second Ni-NTA column. Protein purity was verified with SDS-PAGE and intact MS. DCN1 was dissolved in a buffer containing 25 mM Tris-HCl, 200 mM NaCl, and 1 mM DTT at 400 nM. 11 concentrations of compounds were added to the DCN1 solution and incubated at room temperature for 3 hours, unless otherwise specified. The reaction plates were quenched by adding 0.2% formic acid. […] The cartridge was re-equilibrated with loading buffer for 1 second before collection of the next sample. The Q-TOF was operated in TOF-only positive ionization mode set to the following parameters: Gas Temp=350 C, Drying Gas=7 l/min, Nebulizer=50 psi, Sheath Gas Temp=400 C, Sheath Gas Flow=12 l/min, Vcap=4000 V, Nozzle Voltage=1000 V, Fragmentor=125 V, Skimmer=65 V and Oct 1 RF Vpp=750V. Raw MS data files were deconvoluted and analyzed using the Agilent MassHunter Bioconfirm software package to identify both parent protein and expected compound adduct mass signatures.

[1] = test system: Cullin-3 (CUL3) neddylation; assay: AlphaLISA assay for Cullin-3 (CUL3) neddylation in TF 1 cells; assay type: cell-based; settings: 3 hours treatment; for IC50: Homo sapiens
How it was run: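 TF 1 cells in unsupplemented IMDM treated with compound concentrations for 3 h, then lysed. CUL3 neddylation detected by AlphaLISA (biotinylated anti-NEDD8, anti-CUL3 acceptor beads overnight, streptavidin donor beads 1 h); normalized to vehicle (0%) and 1 μM DI-1548 (100%), IC50 from Hill fits.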

[2] = target: DCN1 (DCUND1) protein PONY domain (Homo sapiens (Human), UniProt Q96GG9); assay: TR-FRET assay, DCN1 binding with FAM-labeled probe
How it was run: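 Biotinylated DCN1 PONY domain, labeled with streptavidin-Tb, was competed against a FAM-labeled non-covalent DCN1 inhibitor probe in buffer with TritonX and 200 mM NaCl. Conditions were 5 nM DCN1 with 20 nM FAM-probe, or 0.31 nM DCN1 with 100 nM FAM-plus 800 nM unlabeled probe. The TR-FRET ratio was read at 1, 5 and 24 h (0.1% DMSO).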

[3] = 24 hr after treatment with compound, read-out: TR FRET IC50 24 hr
[4] = TR FRET IC50 1 hr (nM), 1 hr after treatment with compound
[5] = read-out: TR FRET IC50 1 hr, 1 hr after treatment with compound

Sequence of DCN1 protein (Q96GG9 whole entry): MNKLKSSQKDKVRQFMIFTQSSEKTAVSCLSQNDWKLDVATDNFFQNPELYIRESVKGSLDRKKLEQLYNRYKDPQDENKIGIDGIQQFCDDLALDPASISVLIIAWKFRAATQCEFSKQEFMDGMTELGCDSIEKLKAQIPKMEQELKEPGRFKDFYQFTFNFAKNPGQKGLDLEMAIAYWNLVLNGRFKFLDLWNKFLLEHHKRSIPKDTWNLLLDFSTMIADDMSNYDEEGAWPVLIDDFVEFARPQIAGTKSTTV
Sequence of DCN1 (DCUND1) protein PONY domain (Q96GG9 60-248): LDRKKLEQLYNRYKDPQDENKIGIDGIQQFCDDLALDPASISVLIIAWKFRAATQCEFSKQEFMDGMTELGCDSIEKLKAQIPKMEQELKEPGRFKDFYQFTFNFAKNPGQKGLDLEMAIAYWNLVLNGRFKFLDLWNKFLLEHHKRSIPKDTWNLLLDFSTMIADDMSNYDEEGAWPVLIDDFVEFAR

Structure (SMILES) | % Adduct Formation (DCN1 protein) | IC50 ([1]; TF-1, 3 h) | IC50 [2, 3] | IC50 [2, 4] | also measured
CCN1C(=O)[C@@H](NC(=O)c2cccc(C(F)(F)F)c2)[C@@H](c2ccc(F)cc2)c2c(NC(=O)C(F)Cl)nn(-c3ccccc3)c21 (mixture of isomers) [Compound I-120] | + (MS Emax % adduct formation greater than or equal to 0.0 and less than or equal to 30.0) | – | – | – | –
CCN1C(=O)[C@@H](NC(=O)c2cccc(C(F)(F)F)c2)[C@@H](c2ccc(F)cc2)c2c([C@@H](C)NC(=O)/C=C/C(F)(F)F)nn(-c3ccccc3)c21 (mixture of isomers) [Compound I-164] | + (MS Emax % adduct formation greater than or equal to 0.0 and less than or equal to 30.0) | – | – | – | –
CCN1C(=O)[C@@H](NC(=O)c2cccc(C(F)(F)F)c2)[C@@H](c2ccc(F)cc2)c2c([C@@H](C)NC(=O)/C=C/CN3CCOCC3)nn(-c3ccccc3)c21 (mixture of isomers) [Compound I-165] | + (MS Emax % adduct formation greater than or equal to 0.0 and less than or equal to 30.0) | – | – | – | –
CCN1C(=O)[C@@H](NC(=O)c2cccc(C(F)(F)F)c2)[C@@H](c2ccc(F)cc2)c2c([C@@H](C)NC(=O)C3=CCCC3)nn(-c3ccccc3)c21 (mixture of isomers) [Compound I-166] | + (MS Emax % adduct formation greater than or equal to 0.0 and less than or equal to 30.0) | – | – | – | –
CCN1C(=O)[C@@H](NC(=O)c2cccc(C(F)(F)F)c2)[C@@H](c2ccc(F)cc2)c2c([C@@H](C)NC(=O)COc3c(F)c(F)cc(F)c3F)nn(-c3ccccc3)c21 (mixture of isomers) [Compound I-168] | + (MS Emax % adduct formation greater than or equal to 0.0 and less than or equal to 30.0) | – | – | – | –
C=CC(=O)N[C@H](C)c1nn(-c2ccccc2)c2c1[C@H](c1ccc(F)cc1)[C@H](NC(=O)c1cccc(C(F)(F)F)c1)C(=O)N2CC (mixture of isomers) [Compound I-174] | + (MS Emax % adduct formation greater than or equal to 0.0 and less than or equal to 30.0) | – | – | – | –
CCN1C(=O)[C@@H](NC(=O)c2cccc(C(F)(F)F)c2)[C@@H](c2ccc(F)cc2)c2c([C@H](C)NC(=O)CCl)nn(-c3ccccc3)c21 (mixture of isomers) [Compound I-175] | + (MS Emax % adduct formation greater than or equal to 0.0 and less than or equal to 30.0) | – | – | – | –
C=C(C)C(=O)N[C@H](C)c1nn(-c2ccccc2)c2c1[C@H](c1ccc(F)cc1)[C@H](NC(=O)c1cccc(C(F)(F)F)c1)C(=O)N2CC (mixture of isomers) [Compound I-191] | + (MS Emax % adduct formation greater than or equal to 0.0 and less than or equal to 30.0) | – | – | – | –
CC#CC(=O)N[C@H](C)c1nn(-c2ccccc2)c2c1[C@H](c1ccc(F)cc1)[C@H](NC(=O)c1cccc(C(F)(F)F)c1)C(=O)N2CC (mixture of isomers) [Compound I-209] | + (MS Emax % adduct formation greater than or equal to 0.0 and less than or equal to 30.0) | – | – | – | –
CCN1C(=O)[C@@H](NC(=O)c2cccc(C(F)(F)F)c2)[C@@H](c2ccc(F)cc2)c2c([C@@H](C)NC(=O)/C=C/CN(C)C)nn(-c3ccccc3)c21 (mixture of isomers) [Compound I-210] | + (MS Emax % adduct formation greater than or equal to 0.0 and less than or equal to 30.0) | – | – | – | –
CCN1C(=O)[C@@H](NC(=O)c2cccc(C(F)(F)F)c2)[C@@H](c2ccc(F)cc2)c2c([C@H](C)NC(=O)C(C)Cl)nn(-c3ccccc3)c21 (mixture of isomers) [Compound I-211] | + (MS Emax % adduct formation greater than or equal to 0.0 and less than or equal to 30.0) | – | – | – | –
CCN1C(=O)[C@H](NC(=O)c2cccc(C(F)(F)F)c2)[C@H](C2CC2)c2c(C(=O)N(C)C(C)C#N)nn(-c3ccccc3)c21 (some centres unmarked) [Compound I-676] | – | > 1 µM | 1000 to 3000 nM | 1000 to 3000 nM | –
CCN1C(=O)[C@H](NC(=O)c2cccc(C(F)(F)F)c2)[C@H](c2ccc(F)cc2)c2c(C(=O)N3CCC[C@H]3C#N)nn(-c3cccc(OCCCN4CCN(C5COC5)CC4)c3)c21 [Compound I-681] | – | > 1 µM | 1000 to 3000 nM | 1000 to 3000 nM | –
CCN1C(=O)[C@@H](NC(=O)c2cccc(C(F)(F)F)c2)[C@@H](C2CC2)c2c(C(=O)N(CC#N)C3CC3)nn(C3CCOCC3)c21 [Compound I-682] | – | ≤ 0.1 µM | ≤ 200 nM | 200 to 1000 nM | –
CCN1C(=O)[C@@H](NC(=O)c2cccc(C(F)(F)F)c2)[C@@H](C2CC2)c2c(C(=O)N(CC#N)CCCN(C)C)nn(C3CCOCC3)c21 [Compound I-683] | – | ≤ 0.1 µM | ≤ 200 nM | 200 to 1000 nM | –
CCN1C(=O)[C@@H](NC(=O)c2ccn(C(F)(F)F)n2)[C@@H](c2ccc(F)cc2)c2c(C(=O)N3CCN(C)CC3C#N)nn(-c3ccccc3)c21 (stereo partly drawn) [Compound I-684, N-((4S,5S)-3-(2-cyano-4-methylpiperazine-1-carbonyl)-7-ethyl-4-(4-fluorophenyl)-6-oxo-1-phenyl-4,5,6,7-tetrahydro-1H-pyrazolo[3,4-b]pyridin-5-yl)-1-(trifluoromethyl)-1H-pyrazole-3-carboxamide] | – | ≤ 0.1 µM | ≤ 200 nM | – | IC50 [2, 5]: ≤ 200 nM
CCN1C(=O)[C@@H](NC(=O)c2cccc(C(F)(F)F)c2)[C@@H](c2ccc(F)cc2)c2c(COCC#N)nn(-c3ccccc3)c21 [Compound I-685] | – | 0.1 to 1 µM | ≤ 200 nM | – | IC50 [2, 5]: ≤ 200 nM
CCN1C(=O)[C@@H](NC(=O)c2cccc(C(F)(F)F)c2)[C@@H](C2CC2)c2c(C(=O)N3CCC[C@H]3C#N)nn(-c3ccccc3)c21 [Compound I-686] | – | – | ≤ 200 nM | 1000 to 3000 nM | Neddylation IC50 (nM) [1]: + +
CCN1C(=O)[C@@H](NC(=O)c2cccc(C(F)(F)F)c2)[C@@H](c2ccc(F)cc2)c2c(C(=O)N3CC[C@H](F)[C@H]3C#N)nn(C3CCOCC3)c21 [Compound I-694, N-((4S,5S)-3-((2R,3S)-2-cyano-3-fluoropyrrolidine-1-carbonyl)-7-ethyl-4-(4-fluorophenyl)-6-oxo-1-(tetrahydro-2H-pyran-4-yl)-4,5,6,7-tetrahydro-1H-pyrazolo[3,4-b]pyridin-5-yl)-3-(trifluoromethyl)benzamide] | – | ≤ 0.1 µM | ≤ 200 nM | – | IC50 [2, 5]: ≤ 200 nM
CCN1C(=O)[C@@H](NC(=O)c2c(Cl)ccc(OC)c2F)[C@@H](C2CC2)c2c(C(=O)N3[C@H](C#N)C[C@H]4C[C@H]43)nn(C3CCOCC3)c21 [Compound I-697] | – | > 1 µM | 1000 to 3000 nM | 1000 to 3000 nM | –
CCN1C(=O)[C@@H](NC(=O)C(C2CC2)C2CC2)[C@@H](C2CC2)c2c(C(=O)N3[C@H](C#N)C[C@H]4C[C@H]43)nn(C3CCOCC3)c21 [Compound I-699] | – | > 1 µM | 1000 to 3000 nM | 1000 to 3000 nM | –
CCN1C(=O)[C@@H](NC(=O)c2cccc(C(F)(F)F)c2)[C@@H](C2CC2)c2c(C(=O)N3[C@H](C#N)CC[C@@H]3C)nn(C3CCOCC3)c21 [Compound I-700] | – | 0.1 to 1 µM | 200 to 1000 nM | 1000 to 3000 nM | –
CCN1C(=O)[C@@H](NC(=O)c2cccc(C(F)(F)F)c2)[C@@H](C2CC2)c2c(C(=O)N(CC#N)C3CC3)nn(C3CC3)c21 [Compound I-702] | – | 0.1 to 1 µM | 200 to 1000 nM | 1000 to 3000 nM | –
CCN1C(=O)[C@@H](NC(=O)c2cccc(C(F)(F)F)c2)[C@@H](C2CC2)c2c(C(=O)N3[C@@H](C#N)C[C@@H]4C[C@@H]43)nn(C3CCOCC3)c21 [Compound I-703, N-((4S,5S)-3-((1S,3R,5S)-3-cyano-2-azabicyclo[3.1.0]hexane-2-carbonyl)-4-cyclopropyl-7-ethyl-6-oxo-1-(tetrahydro-2H-pyran-4-yl)-4,5,6,7-tetrahydro-1H-pyrazolo[3,4-b]pyridin-5-yl)-3-(trifluoromethyl)benzamide] | – | > 1 µM | 1000 to 3000 nM | 1000 to 3000 nM | –
CCN1C(=O)[C@@H](NC(=O)c2ccc3nn[nH]c3c2)[C@@H](C2CC2)c2c(C(=O)N3[C@H](C#N)C[C@H]4C[C@H]43)nn(C3CCOCC3)c21 [Compound I-705] | – | > 1 µM | 1000 to 3000 nM | 1000 to 3000 nM | –
CCN1C(=O)[C@@H](NC(=O)c2ccc3snnc3c2)[C@@H](C2CC2)c2c(C(=O)N3[C@H](C#N)C[C@H]4C[C@H]43)nn(C3CCOCC3)c21 [Compound I-706] | – | ≤ 0.1 µM | 200 to 1000 nM | 1000 to 3000 nM | –
CCN1C(=O)[C@@H](NC(=O)c2cccc3ccoc23)[C@@H](C2CC2)c2c(C(=O)N3[C@H](C#N)C[C@H]4C[C@H]43)nn(C3CCOCC3)c21 [Compound I-707] | – | – | ≤ 200 nM | – | IC50 [1]: ≤ 0.1 µM; IC50 [2, 5]: ≤ 200 nM
